From patent US8048877B2, “Guanidine derivatives and their medical use” (Neurosearch A/S, priority 2006, dated 2011)
Structures can show the parent of a compound that is named as a salt.

Columns and labels:
hSK3 channels = molecular target: T1, hSK3 channels (Homo sapiens, UniProt Q9UGI6); assay: whole-cell patch-clamp recording of SK3 current in HEK293 cells expressing hSK3 channels; type: cell-based; conditions: current at −75 mV, free Ca2+ 0.3-0.4 μM, room temperature, read-out: Kd value (concentration required for decreasing the baseline current to 50% of the initial current)
T1 construct: expressed in transfected cells; host or cells: HEK293
Procedure: The ionic current through small-conductance Ca^2+-activated K^+ channels (SK channels, subtype 3) was recorded using the whole-cell configuration of the patch-clamp technique.
HEK293 tissue culture cells expressing hSK3 channels were grown in DMEM (Dulbecco's Modified Eagle Medium) supplemented with 10% FCS (foetal calf serum) at 37° C. in 5% CO2. At 60-80% confluency, cells were harvested by trypsin treatment and seeded on cover slips.
Cells plated on coverslips were placed in a 15 μl perfusion chamber (flowrate ˜1 ml/min) mounted on an inverted microscope placed on a vibration-free table in a grounded Faraday cage. The experiments were performed at room temperature (20-22° C.). […] Data were stored directly on the hard-disk and analysed by IGOR software (Wavemetrics, Lake Oswega, Oreg., USA).
The whole-cell configuration of the patch-clamp technique was applied. […] Cell capacitance was electronically compensated and the resistance between the pipette and the cell interior (the series resistance, Rs) was measured and compensated for. […]
The intracellular (pipette) solution contained: 154 mM KCl, 10 mM HEPES, 10 mM EGTA. Concentrations of CaCl2 and MgCl2 needed to obtain the desired free concentrations of Ca^2+ (0.3-0.4 μM, Mg^2+ always 1 mM) were calculated by EqCal software (Cambridge, UK) and added. […]

melting point [°C] | Kd (hSK3 channels) [nM] | Compound
215 to 218 |  | N=C1N(Cc2ccc(F)c(F)c2)Cc2ccccc2N1Cc1ccc(F)c(F)c1 (as salt: salt) [Compound 4, 1,3-Bis-(3,4-difluorobenzyl)-3,4-dihydro-1H-quinazolin-2-ylideneamine]
220 to 224 |  | N=C1N(Cc2cc(F)c(F)cc2Br)Cc2ccccc2N1Cc1cc(F)c(F)cc1Br (as salt: salt) [Compound 9, 1,3-Bis-(2-bromo-4,5-difluorobenzyl)-3,4-dihydro-1H-quinazolin-2-ylideneamine]
238 to 240 |  | N=C1N(Cc2ccc(F)c(F)c2)[C@@H]2CCCC[C@H]2N1Cc1ccc(F)c(F)c1 (racemic) (as salt: salt) [Compound 5, (±)-trans-1,3-Bis-(3,4-difluoro-benzyl)octahydro-benzoimidazol-2-ylideneamine]
 | < 1000 | N=C1N(Cc2ccc(F)c(F)c2)CCCN1Cc1ccc(F)c(F)c1 [Compound 7, 1,3-Bis-(3,4-difluorobenzyl)tetrahydropyrimidin-2-ylideneamine]
 | < 1000 | COc1ccc(OC(F)(F)F)cc1CN1CCN(Cc2cc(OC(F)(F)F)ccc2OC)C1=N [Compound 15, 1,3-Bis-(2-methoxy-5-trifluoromethoxybenzyl)imidazolidin-2-ylideneamine]
